From US20130177531A1, “Inhibitors of Serine Proteases” (Vertex Pharmaceuticals Incorporated, priority 2005, published 2013)

Columns and labels:
[1] = Oral bioavailability and isomer interconversion of R and S isomers at C* in rats; parameters: species or system male Sprague Dawley rats; details: rat; for bioavailability / half-life: 30 mg/kg
Procedure: Three groups of male Sprague Dawley rats (n=6-7/group) were orally administered a compound of formula I wherein the mixture comprised about 92% R isomer at position C* and about 8% S isomer at position C*; a mixture that was about 7% R isomer at position C* and about 93% S isomer at position C*; or a compound of formula I wherein the mixture was about 54% R isomer at position C* and about 46% S isomer at position C*; at a nominal dose of 30 mg/kg. Serial blood samples were collected up to 24 hours (hr) post dose. Derived plasma samples (100 μL) were acidified by the addition of 5 μL of formic acid to prevent in vitro interconversion. The determination of concentrations of both the R isomer and the S isomer, at position C*, in plasma and in dose solutions was conducted using a chiral liquid chromatography/mass spectrometry (LC/MS/MS, e.g., LC/tandem mass spectroscopy) method. The formulations of the solid dispersions containing either 10% of the R:S mixture, the R isomer, or the S isomer were prepared according to Table 4. […] The sodium lauryl sulfate and PVP were added to the flask containing the drug solution and were then mixed until dissolved. The mixtures were dried under Roto-vap for about 15 min. After a dry powder was obtained, the solid was then scraped from the flask and transferred to a glass container. The solid was dried for 24 hr at 55° C. in a vacuum oven with nitrogen bleed. The dry solid was then milled by mortar and pestle and was stored in a tightly capped vial. […] Male Sprague Dawley rats (Charles River Laboratories, Kingston, R.I.; n=6-7/group) were used in the study. The day before dosing, the rats were cannulated in the carotid artery for collecting blood samples. […] The experiments were performed with a parallel study design as 6 separate single dose studies as described in Table 5. […] The blood samples were collected in tubes containing potassium EDTA and were centrifuged to plasma within 15 min of collection. A diluted solution of formic acid was prepared by diluting 1 mL of formic acid with 9 mL of water. A total of 5 micro liters (μL) of this diluted formic acid was placed into each plasma tube. An aliquot of plasma (100 μL per tube) was placed into appropriately labeled tubes containing the formic acid, and the acidified plasma was stored frozen at −70° C. until analysis. The acidification step was implemented to prevent in vitro interconversion. Referring to Table 6, several bioavailability parameters for compounds undergoing reversible metabolism could be estimated by the following descriptions.

[2] = in vivo; details: male, Sprague-Dawley, rat, iv
Procedure: The intravenous pharmacokinetics of compounds of formula I were evaluated in rats and dogs. A group of 3 male Sprague-Dawley rats weighing between 250 to 300 g was administered an intravenous bolus dose of 0.95 mg/kg of an S-diastereomer of formula I, in a vehicle consisting of 15% ethanol, 10% dimethyl isosorbide, 35% PEG400 and 40% D5W (5% dextrose in water). Serial blood samples were collected in heparinized tubes at 0 (pre-dose), 0.083, 0.167, 0.25, 0.5, 1, 1.5, 2, 3, 4, 6, and 8 h, post-dose administration. […] For oral studies in rats and dogs, an S-diastereomer compound of formula I was formulated in polyvinylpyrrolidone (PVP) K30 plus 2% sodium lauryl sulfate and then dosed as an oral gavage. A group of 3 male Sprague-Dawley rats (250 to 300 g, Harlan, Md.) was dosed orally with 40 mg/kg of the compound, and a group of 3 male Beagle dogs (10.9-12.0 kg) was administered an oral dose of 13.2 mg/kg of the compound. In both oral studies, blood samples were taken at pre-dose, 0.25, 0.5, 1, 1.5, 2, 3, 4, 6, 8, 12, and 24 h following dose administration. […] Samples obtained from the rat intravenous study were subjected to a chiral liquid chromatography/mass spectrometry (LC/MS/MS) analysis, while samples of all other studies were analyzed using a non-chiral LC/MS/MS method. […]

FR+SR, estimated total bioavailability based on combined exposure to the R and S isomers following a dose of the R isomer ([1]; male, Sprague Dawley, in vivo)	mean (±SD) Tmax for the R isomer ([1]; male, Sprague Dawley, in vivo)	bioavailability ([1]; male, Sprague Dawley, in vivo) [%]	half-life ([1]; male, Sprague Dawley, in vivo) [h]	in vivo isomer conversion at position C* (R to S versus S to R) [1]	half-life [2] [h]	DN AUCINF of the S isomer ([1]; male, Sprague Dawley, in vivo) [ng·h/mL]	mean (±SD) Tmax for the S isomer ([1]; male, Sprague Dawley, in vivo)	SMILES
about 98%	2.11 (−1.24) hr	80.6	2.18	more prominent	0.75			CCC[C@@H](NC(=O)[C@@H]1[C@H]2CCC[C@H]2CN1C(=O)[C@@H](NC(=O)[C@@H](NC(=O)c1cnccn1)C1CCCCC1)C(C)(C)C)C(=O)C(=O)NC1CC1 [R isomer at C*, (1S,3aR,6aS)-2-[(2S)-2-[[(2S)-2-cyclohexyl-1-oxo-2-[(pyrazinylcarbonyl)amino]ethyl]amino]-3,3-dimethyl-1-oxobutyl]-N-[(1R)-1-[2-(cyclopropylamino)-1,2-dioxoethyl]butyl]octahydro-cyclopenta[c]pyrrole-1-carboxamide]
		42.9	3.6		1.73	140	2.52 (±2.19) hr	CCC[C@H](NC(=O)[C@@H]1[C@H]2CCC[C@H]2CN1C(=O)[C@@H](NC(=O)[C@@H](NC(=O)c1cnccn1)C1CCCCC1)C(C)(C)C)C(=O)C(=O)NC1CC1 [S isomer at C*, (1S,3aR,6aS)-2-[(2S)-2-[[(2S)-2-cyclohexyl-1-oxo-2-[(pyrazinylcarbonyl)amino]ethyl]amino]-3,3-dimethyl-1-oxobutyl]-N-[(1S)-1-[2-(cyclopropylamino)-1,2-dioxoethyl]butyl]octahydro-cyclopenta[c]pyrrole-1-carboxamide]
